# Test results taken from publication PMC12040169 (PLOS Biology, 2025).
# Assay: in vitro
# Settings: human, hela cells, % viability
row,SMILES,"viability at 28.5 h, 10 µM [%]"
1,COc1ccc(C(C)C)cc1-c1nc(NS(C)(=O)=O)cc2ccccc12 [CBK073779],94.2
2,O=C(Cc1noc2ccccc12)Nc1ccc(N2CCCS2(=O)=O)cc1 [CBK304521],107
3,COc1ccc(-c2cc(C(=O)NCCc3ccncc3)cnc2-c2cccc(C)c2)cn1 [CBK037489],99.1
4,COc1ccc(C)cc1NC(=O)c1cnc2n(c1=O)CCS2 [CBK287383],108
5,COc1ccc(OC)c(NC(=O)c2cnc3scc(C)n3c2=O)c1 [CBK287462],90.5
6,CN1C[C@@H](NC(=O)c2ccc3c(c2)OCO3)C[C@H]1c1nc(-c2ccccc2)no1 [CBK288876],108
7,Fc1cccc(-c2c[nH]nc2C2CCOCC2)c1 [CBK283465],91
8,CC(=O)Nc1ccc(F)c(NC(=O)NCC2CCOC2)c1 (centres unmarked) [CBK304388],107
9,Cn1cc(CCO)c2ccccc21 [CBK081087],109
10,COc1cc(C(=S)N2CCN(C)CC2)ccc1OCC(N)=O [CBK269037],84.7
11,C[C@H](Nc1cncc(-c2cccc(N(C)C)c2)n1)c1ccccc1 [CBK065699],96.8
12,CC(SCc1ccccc1)C(=O)NC(C)c1ccccc1 (centres unmarked) [CBK263772],103
13,CC(=O)N1CCC(c2c(C(=O)Nc3cccc(CN4CCCC4)c3)sc3ccccc23)C1 (centres unmarked) [CBK285892],110
14,CSCCC(C(=O)O)n1c(S)nnc1-c1ccc2ccccc2n1 (centres unmarked) [CBK269230],99.5
15,O=C(O)CNS(=O)(=O)c1ccc2nc(O)c(O)nc2c1 [CBK264334],94.4
16,COc1ccc(NC(=O)c2cn(C)nc2CC2CCN(CCc3ccccc3)CC2)cc1 [CBK285559],90.9
17,CCN(Cc1ccncc1)C(=O)NCCCSC [CBK155125],88.8
18,COc1ccccc1CCNC(=O)N1CCC(Oc2cccnc2)CC1 [CBK307615],106
19,O=C(Cn1cccn1)NC(Cc1ccsc1)c1nccs1 (centres unmarked) [CBK284666],94
20,Cc1cc(C)c2nc(NC(=O)c3ccccc3)sc2c1 [CBK287308],97.9
21,N#Cc1ccc(C2NC(=O)c3ccccc3O2)cc1 (centres unmarked) [CBK288180],89.3
22,CSc1ncc(Cl)c(C(=O)Nc2sc3c(c2C(=O)NC2CCS(=O)(=O)C2)CCC(C)C3)n1 (centres unmarked) [CBK268886],95.2

row,SMILES,"viability at 28.5 h, 10 µM [%]"
1,COC(=O)c1sc(NC(=O)c2cccnc2)c(C#N)c1C [CBK265007],89.4
2,CCOC(=O)c1ccc(NCc2c(O)ccc3oc4c(c23)CCCC4)cc1 [CBK160394],97.7
3,COc1ccc(C(C)C)cc1-c1nc2ncccc2cc1N [CBK067614],95.8
4,O=C(Nc1cccc2ccccc12)N1CCN(Cc2ccc3c(c2)OCO3)CC1 [CBK074747],89
5,C[C@H](Nc1nc(-c2cccc(/C=C/C(=O)O)c2)cnc1N)c1ccccc1 [CBK063754],85.2
6,O=C(O)CNCc1ccc(-c2ccc(Cl)cc2)o1 [CBK287258],102
7,NS(=O)(=O)c1ccc(NC2=NC(=O)C(CC(=O)Nc3ccccc3)S2)cc1 (centres unmarked) [CBK266417],98.2
8,CSCCN(CC(=O)O)Cc1ccccc1 [CBK005712],91.1
9,Cc1noc(C)c1CN1CCC(c2ccccc2)CC1 [CBK306001],89.9
10,Cc1nonc1NC(=O)CN1CCCCC1 [CBK261839],110
11,Cc1c(S(=O)(=O)N2CCN(C3CCN(C)CC3)CC2)sc2ccc(C(C)C)cc12 [CBK170352],105
12,Cc1c(-c2cccc(NC(=O)c3ccccc3)c2)nc2ncccn12 [CBK287504],67.3
13,OCCNc1nccnc1-c1ccoc1 [CBK036580],106
14,COc1cc(C)c(Nc2cccc(-c3ccc(O)cc3)n2)cc1OC [CBK037608],107
15,Cn1ccnc1C1(O)CC2CCC(C1)N2C(=O)c1ccc(Cl)cc1 (centres unmarked) [CBK284087],94.2
16,COc1ccccc1NC(=S)NCCN(C)C [CBK265343],111
17,COc1cc(CN2CCC(N3CCN(c4ccccc4)CC3)CC2)ccc1OCc1ccccc1 [CBK264655G],95.6
18,COc1ccc(N2CCN(Cc3nc4c(c(=O)n(C)c(=O)n4C)n3CC(C)=O)CC2)cc1 [CBK269465],103
19,O=C(O)COC(=O)C1C(c2ccccc2)C(C(=O)O)C1c1ccccc1 (centres unmarked) [CBK263881],85.9
20,CCC(=O)Nc1ccc(-n2cnc(C(=O)NCc3cccnc3)c2)nc1 [CBK288603],115
21,COCC(=O)NC1CC(C)(C)Cc2c1cnn2-c1ccc(C)cc1 (centres unmarked) [CBK282866],118
22,Cc1onc(-c2ccccc2)c1CNC(=O)/C=C/c1ccc2c(c1)OCO2 [CBK144085],95

row,SMILES,"viability at 28.5 h, 10 µM [%]"
1,CC(NC(=O)c1ccc(-n2ccnc2)c(-n2cccc2)c1)c1ccco1 (centres unmarked) [CBK284808],98
2,CC1=NN(c2ccccc2)C(=O)C1C(=O)c1ccc(Br)cc1 (centres unmarked) [CBK067771],98.1
3,Cn1nc(CC(=O)Nc2ccc(OC(=O)c3ccccc3)cc2)c2ccccc2c1=O [CBK264057],96
4,O=C1NCCNC(=O)C2(C/C=C/COc3ccccc31)CCN(Cc1ccccc1F)CC2 [CBK292024],101
5,O=C(COc1ccc2ccccc2c1)Nc1cc([N+](=O)[O-])ccc1F [CBK263780],92.8
6,COc1nccnc1N1CCN(CCSC)CC1 [CBK084227],90.2
7,Cc1nc(CC(=O)NC2CCCN(c3ccn(C)n3)C2=O)c(C)s1 (centres unmarked) [CBK304422],82.8
8,CN1CCC2(CC1)CC(NC(=O)C1CCCCC1)c1ccccc1O2 (centres unmarked) [CBK282635],91.6
9,CC(CO)(CO)Nc1ccc(C(F)(F)F)cc1[N+](=O)[O-] [CBK262806],61.9
10,CC(C)Cc1nsc(NC2CCCN(c3ccn(C)n3)C2=O)n1 (centres unmarked) [CBK304696],91.2
11,O=C(O)C(c1c[nH]c2ccccc12)N1CCc2ccccc2C1 (centres unmarked) [CBK286664],84.5
12,COc1ccccc1C1(NC(=O)c2c(C)noc2C)CCCC1 [CBK283644],95
13,CCOC(=O)c1cc2cc(NC(=O)N(CCO)C3CC3)ccc2s1 [CBK306007],87.6
14,COc1ccc(C(=O)NCCCSc2nc(C(C)(C)C)cc(C(F)(F)F)n2)cc1 [CBK268690],99.7
15,CCCn1cc(CN2C3CCC2CC(O)(c2ccc(F)cc2)C3)cn1 (centres unmarked) [CBK282971],91.5
16,S=C(NCc1ccccc1)Nc1ccccc1 [CBK091617],105
17,CCCC(=O)c1ccc(S(=O)(=O)N2CCCN(Cc3c[nH]nc3-c3ccc(F)cc3)CC2)cc1 [CBK062911],121
18,CCOC(=O)N1CCN(C(C(=O)O)c2c[nH]c3cc(OCc4ccccc4)ccc23)CC1 (centres unmarked) [CBK286689],97
19,Cc1cc(Cc2ccccc2Cl)cc(C2CCCN(CC(=O)N(C)C)C2)n1 (centres unmarked) [CBK286262],87.6
20,CN(C)c1ccc(-c2nccnc2NS(=O)(=O)c2ccccc2C(F)(F)F)cc1 [CBK050801],92.8

# Same assay, conditions: human, hela cells, % viability, bulk resorufin, single well
row,SMILES,"viability at 28.5 h, 10 µM [%]"
1,O=C(O)COc1c(Cl)cc(C=C2C(=O)NC(=O)NC2=O)cc1Cl [CBK263377],83
